Common to all, as to type: cell-based, human
The test system of test [1] is peripheral blood CD8+ T cells. The test can be described thus: In vitro suppression assay, peripheral blood CD8+ T cells (CFSE CD4+ T cell proliferation). The conditions noted are these: for suppressor activity acquired by stimulated CD8+ T cells (suppression of CD4+ T cell proliferation): 10 μg/mL, 3 days, co-culture 1:1 with CFSE-labeled CD3/CD28-stimulated CD4+ T cells; for percent suppression of CD4+ T cell proliferation (suppressive activity): single peptide 10 μg/mL, normalized against unstimulated CD8+ T cells. From the text: To identify the N-domain peptides that trigger the activation of CD8+ T cells with the suppressor phenotype, peripheral blood CD8^+ T cells and peripheral blood CD4^+ T cells were selected using CD8^+ and CD4^+ T-cell selection kits (Stemcell Technologies, Vancouver, Canada), respectively.
Anti-CD3/CD28 beads were used as positive controls. Cells were then washed, counted, and added at a ratio of 1:1 (2×10^6) to peripheral CD4^+ T cells labeled with carboxyfluorescein succinimidyl ester (CFSE) (Invitrogen, CA), and either unstimulated or stimulated with anti-CD3/CD28 beads.
(§1) Proliferation of CD4^+ T-cells measured by CFSE dilution was evaluated by flow cytometry. CD4+ T cells were labeled with PE anti-CD4 antibody. Percent suppression was calculated based on equation 1:
(§2) % Supp=100*[1−(%Exp/%Control)] (1)
(§3) where: • %Supp=percent suppression • %Exp=the percentage of proliferating CD4+ T cells in the experimental population • % Control=the percentage of proliferating CD4+ T cells in the control population
These peptides were selected due to their activity in the phosphorylation assay. […] Peptides 13 and 15 were also shown to activate suppression, although to a more modest extent (˜10% suppressive activity).
Finally, peptides a-d (see FIG. 7A) were also evaluated using the same procedure, incubating the cells with each single peptide (10 μg/mL).

The test system of test [2] is LcK phosphorylation in peripheral blood CD8+ T cells. The experiment in a line: In cell western blot LcK phosphorylation assay. The conditions noted are these: 10 μg/mL, 5, 10, 15 minutes. On the procedure: The library of peptides 1-20 was first evaluated by western blot for their ability to activate CD8+ T cells, as indicated by the ability to stimulate LcK phosphorylation (“pLcK”). Peripheral blood isolated CD8′ T cells (2×10^6) were seeded in a 96-well flat-bottom plate and starved in RPMI serum free medium overnight at 37° C. The next day and prior to performing the experiments, the plate was placed on ice for 15 minutes. Cells were stimulated with OKT8 (5 μg/mL) (a known CD8+ T cell activator), purified CEACAM5 peptide (10 μg/mL), the entire library of peptides (10 μg/mL), Pool 1 (10 μg/mL), Pool 2 (10 μg/mL), Pool 3 (10 μg/mL), or each single N-domain peptide (10 μg/mL). Unstimulated cells were also evaluated for each condition. Prior to these experiments a titration curve was performed for the entire library of peptides. A range of concentration between 1 and 100 μg/mL was tested.
Stimulation was stopped using a 4% formaldehyde buffer for 20 minutes followed by centrifugation for 10 minutes at 1,500 rpm. Permeabilization was performed by washing the cells with 1×PBS containing 0.1% Triton X-100 for 5 minutes per wash. After permeabilization, cells were incubated for 1 hour with a blocking buffer (Odyssey Blocking buffer-LICOR) followed by the primary antibodies (goat anti-actin and rabbit anti-pLcK) overnight at 4° C. The next day, cells were washed 5 times with 1×PBS containing 0.1% Tween 20, incubated for 1 hour at room temperature with the secondary antibodies (IRDye 800CW donkey anti goat IgG, IRDye 680 CW donkey anti rabbit IgG), and then washed five times. Wells were dried and the plate was scanned using an Odyssey LiCOR system. The software ImageJ was used for quantification of pLcK. Each value was calculated using actin expression as a house keeping gene and taking into consideration any background noise. […]

Test [3] relates to Crohn's disease lamina propria CD8+ T cells. The test can be described thus: In vitro suppression assay, Crohn's disease lamina propria CD8+ T cells (suppression of CD4+ T cell proliferation). The settings on record: for average suppression percentage (suppressor phenotype): Crohn's disease lamina propria CD8+ cells, relative to CD4+ proliferation with normal unstimulated CD8+ T cells. The protocol: (§4) Lamina propria lymphocytes were isolated from patients undergoing surgery for Crohn's disease (CD) or colon cancer (representing a normal (NL) T cell population). Lamina propria CD8+ T cells were isolated after overnight incubation and incubated with CEACAM5 peptide for 3 days. CD8+ T cells were then washed and co-cultured with CFSE-CD3/CD28-stimulated CD4+ T cells for 3 days. Suppression of CD4+ T cell proliferation was measured on the 7th day.
as §1, §2, §3
(§5) Lamina propria lymphocytes were isolated from patients undergoing surgery for Crohn's disease (CD) or colon cancer (representing a normal (NL) T cell population). Lamina propria CD8+ T cells were isolated after overnight incubation and incubated with CEACAM5 peptide or peptide 12 for 3 days. CD8+ T cells were then washed and co-cultured with CFSE-CD3/CD28-stimulated CD4+ T cells for 3 days. Suppression of CD4+ T cell proliferation was measured on the 7th day.

Test [4] deals with CD8-associated LcK kinase in CD8+ T cells. The experiment in a line: Flow cytometry LcK phosphorylation assay. The settings on record: 2, 8, 10, 15 minutes at 37° C., peptide 12 at 20 μg/ml. On the procedure:
To confirm the ability of peptide 12 to activate CD8+ T cells, a second LcK phosphorylation assay was conducted using flow cytometry. CD8+ T cells were treated for different time points (2, 8, 10, 15 minutes) at 37° C. with H2O2 at 10 mM, CEACAM5 supernatant from PIPLC-293T cells expressing CEACAM5, and peptide 12 (20 μg/ml). Stimulation was stopped by fixing with 4% formaldehyde for 10 minutes at room temperature. Subsequently, cells were permeabilized with ice-cold methanol for 20 minutes, washed with PBS containing 0.2% FBS, and then stained with anti-phospho-Lck Ab (BD Biosciences, San Jose, Calif.). The cells were then re-suspended in PBS plus 0.2% FBS, data were acquired using the FACScan system (LSRFortessa, BD Biosciences), and analyzed with FlowJo analysis software (Ashland, Oreg.).

In test [5] the test system is normal lamina propria CD8+ T cells. The test can be described thus: Cytokine IL10 production in lamina propria CD8+ T cells. The settings on record: cultured 3 days; supernatant assessed. On the procedure: Cytokine production in lamina propria CD8+ T cells was evaluated. Normal lamina propria CD8+ and CD4+(control) T cells were cultured for 3 days in presence of OKT8 (control) or either CEACAM5 or peptide 12. The supernatant was then assessed for cytokine production.

The test system is the same in test [6]. The test can be described thus: In vitro suppression assay, normal (colon cancer) lamina propria CD8+ T cells. The settings on record: normal condition (colon cancer biopsies); CD8+ T cells incubated 3 days, vs absence of CEACAM5. The protocol: as §4, §5

Consider “GYVIGTQQATPGPAYSGREI (Fragment of the CEACAM5 N-terminal domain) [peptide c]”, for which the “suppressor activity acquired by stimulated CD8+ T cells (suppression of CD4+ T cell proliferation)” value (from here on “suppressor activity acquired”) in test [1] is listed as “acquired suppressor activity”.

In the case of H-ASLLIQNIIQNDTGF-OH [peptide 15], in test [1], the “percent suppression of CD4+ T cell proliferation (suppressive activity)” value was about 10%.

Regarding H-GTQQATPGPAYSGRE-OH [peptide 11], the “CD8+ T cell activation (LcK phosphorylation, p-LcK)” value in test [2] is “induced phosphorylation of LcK at after 10 minutes”.

H-IGYVIGTQQATPGPA-OH [peptide 10]: the “CD8+ T cell activation (LcK phosphorylation, p-LcK)” value in test [2] is “induced phosphorylation of LcK at after 10 minutes”.

H-TPGPAYSGREIIYPN-OH [peptide 12]: in test [3], the “average suppression percentage (suppressor phenotype)” value worked out at 64%. For the same molecule, the “CD8+ T cell activation (LcK phosphorylation, p-LcK)” value in test [2] was “greatest effect in the activation of CD8+ T cells”. The “suppressor activity acquired” value in test [1] is “acquired suppressor activity at the same extant as those activated with full-length CEACAM5”. The “phosphorylation of CD8-associated LcK kinase” value in test [4] is “induce phosphorylation of CD8-associated LcK kinase”. Further, the IL10 production result in test [5] is “increased IL10”.

On to H-YSGREIIYPNASLLI-OH [peptide 13], for which, in test [1], the “percent suppression of CD4+ T cell proliferation (suppressive activity)” value is about 10%.

Take “TQQATPGPAYSGREIITPNA (Fragment of the CEACAM5 N-terminal domain) [peptide d]”: in test [1], the “suppressor activity acquired” value is “acquiring suppressor activity to the same extent as cells activated with peptide 12”.

B1: CEACAM5: carcinoembryonic antigen family member 5 (GenBank Accession No. NP_001278413), full-length purified glycoprotein used as comparator (protein)
chain: KLTIESTPFNVAEGKEVLLLVHNLPQHLFGYSWYKGERVDGNRQIIGYVIGTQQATPGPAYSGREIIYPNASLLIQNIIQNDTGFYTLHVIKSDLVNEEATGQFRVYPELPKPSISSNNSKPVEDKDAVAFTCEPETQDATYLWWVNNQSLPVSPRLQLSNGNRTLTLFNVTRNDTASYKCETQNPVSARRSDSVILNVLYGPDAPTISPLNTSYRSGENLNLSCHAASNPPAQYSWFVNGTFQQSTQELFIPNITVNNSGSYTCQAHNSDTGLNRTTVTTITVYEPPKPFITSNNSNPVEDEDAVALTCEPEIQNTTYLWWVNNQSLPVSPRLQLSNDNRTLTLLSVTRNDVGPYECGIQNELSVDHSDPVILNVLYGPDDPTISPSYTYYRPGVNLSLSCHAASNPPAQYSWLIDGNIQQHTQELFISNITEKNSGLYTCQANNSASGHSRTTVKTITVSAELPKPSISSNNSKPVEDKDAVAFTCEPEAQNTTYLWWVNGQSLPVSPRLQLSNGNRTLTLFNVTRNDARAYVCGIQNSVSANRSDPVTLDVLYGPDTPIISPPDSSYLSGANLNLSCHSASNPSPQYSWRINGIPQQHTQVLFIAKITPNNNGTYACFVSNLATGRNNSIVKSITVSASGTSPGLSA
Turning to B1, the “average suppression percentage (suppressor phenotype)” value in test [3] is on record as 63%. The “suppressive function of lamina propria CD8+ T cells” value in test [3] (Crohn's disease, CD8+ T cells incubated 3 days) is “stimulates the suppressive function”; in test [6] it was “increased suppressive function”. Further, the “phosphorylation of CD8-associated LcK kinase” value in test [4] is on record as “induce phosphorylation of CD8-associated LcK kinase”. Moreover, in test [5], the IL10 production result was “increased IL10”.
